Measured values reported in PMC5351967, “Blue-light induced accumulation of reactive oxygen species is a consequence of the Drosophila cryptochrome photocycle” (PLoS ONE, 2017).

Target: T1, DmCry (Drosophila melanogaster, UniProt O77059)
T1 construct: gene cry
Assay: UV-visible absorption spectroscopy of protein-bound flavin, photoreduction and dark reoxidation
Type: binding
Details: co-purified cofactor; 50 mM phosphate pH 7.5, 10 mM beta-mercaptoethanol, 21 °C; blue light

T1 sequence (O77059 whole entry): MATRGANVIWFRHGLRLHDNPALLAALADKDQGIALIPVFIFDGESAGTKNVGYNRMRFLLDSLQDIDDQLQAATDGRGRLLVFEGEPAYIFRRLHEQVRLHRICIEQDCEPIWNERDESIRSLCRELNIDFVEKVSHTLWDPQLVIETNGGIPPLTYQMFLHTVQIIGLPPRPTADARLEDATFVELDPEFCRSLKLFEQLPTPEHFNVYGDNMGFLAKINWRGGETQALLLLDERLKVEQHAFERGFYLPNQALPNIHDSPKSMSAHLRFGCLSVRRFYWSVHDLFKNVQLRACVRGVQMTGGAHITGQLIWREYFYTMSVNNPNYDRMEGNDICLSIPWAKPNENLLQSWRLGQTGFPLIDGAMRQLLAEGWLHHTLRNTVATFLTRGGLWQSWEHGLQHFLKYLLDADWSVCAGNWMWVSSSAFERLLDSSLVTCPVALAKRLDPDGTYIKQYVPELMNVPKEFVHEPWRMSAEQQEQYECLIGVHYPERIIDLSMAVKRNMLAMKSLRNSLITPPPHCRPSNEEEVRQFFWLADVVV

Cc1cc2nc3c(=O)[nH]c(=O)nc-3n(C[C@H](O)[C@H](O)[C@H](O)COP(=O)(O)OP(=O)(O)OC[C@H]3O[C@@H](n4cnc5c(N)ncnc54)[C@H](O)[C@@H]3O)c2cc1C [FAD]
UV-visible absorption spectroscopy of protein-bound flavin, photoreduction and d: Flavin reduction to the anionic radical (FAD^•-) redox form could then be observed
